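1) Cells in 96-well plates. 2) Compound, 48 h, 5 concentrations. 3) Linear interpolation between surrounding doses. 4) Unreached endpoint = highest concentration. GI50: concentration for 50% inhibition of growth. TGI: total growth inhibition.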
Columns and labels:
Test in all cases: inhibition of tumour cell growth, NCI panel, 48 h
[1] = tested on: HCT-116 colon
[2] = tested on: TK-10 renal
[3] = tested on: RXF 393 renal
[4] = tested on: HOP-92 NSCLC
[5] = tested on: CCRF-CEM leukemia
[6] = tested on: EKVX NSCLC
[7] = tested on: OVCAR-3 ovarian
[8] = tested on: PC-3 prostate
[9] = tested on: MCF7 breast
[10] = tested on: T-47D breast

Row | Structure (SMILES) | TGI [1] [µM] | TGI [2] [µM] | TGI [3] [µM] | TGI [4] [µM] | TGI [5] [µM] | TGI [6] [µM] | TGI [7] [µM] | GI50 [1] [µM] | GI50 [8] [µM] | TGI [8] [µM] | GI50 [2] [µM] | GI50 [3] [µM] | GI50 [9] [µM] | TGI [9] [µM] | GI50 [5] [µM] | GI50 [6] [µM] | GI50 [7] [µM] | GI50 [4] [µM] | GI50 [10] [µM] | TGI [10] [µM]
1 | COC(=O)C1CCCC2(C1)OCCO2 (configuration not stated) | > 100 | > 100 | > 100 | > 100 | > 100 | > 100 | > 100 |  |  |  |  |  |  |  |  |  |  |  |  | 
2 | CCOC(=O)c1ccc(/C(C)=N/NC(N)=S)cc1 | > 100 | > 100 | > 100 | > 100 | > 100 | > 100 | > 100 |  |  |  |  |  |  |  |  |  |  |  |  | 
3 | COC(=O)/C(=N\NC(N)=S)C(C(=O)OC)C(=O)C(=O)Nc1ccc(C)cc1 (configuration not stated) | > 100 | > 100 | > 100 |  | > 100 | > 100 | > 100 |  |  |  |  |  |  |  |  |  |  |  |  | 
4 | Cc1ccc2nc(/C(=C/c3ccc(/C=C(\NC(=O)c4ccccc4)c4nc5ccc(C)cc5[nH]4)c(C)c3)NC(=O)c3ccccc3)[nH]c2c1 | 39.8 | 88 |  | 52 | 41.9 | > 100 | 22 |  |  |  |  |  |  |  |  |  |  |  |  | 
5 | CC(C)C1=Cc2ccc3c(c2C(=O)C1=O)CCCC3(C)C | 3.33 | 11.2 | 3.86 | 9.79 | > 100 | 28.6 | 6.71 |  |  |  |  |  |  |  |  |  |  |  |  | 
6 | CN(C)C(=S)/N=c1\sn(C)/c(=N\C(=S)N(C)C)n1C | > 100 | > 100 | > 100 | > 100 |  | > 100 | > 100 |  |  |  |  |  |  |  |  |  |  |  |  | 
7 | COC(=O)c1ccc2c(c1)C(=O)c1c-2n(CCCN=[N+]=[N-])c(=O)c2cc(OC)c(OC)cc12 | > 100 | > 100 | > 100 |  | > 100 | > 100 | > 100 | > 100 | > 100 | > 100 | > 100 | > 100 | > 100 | > 100 | > 100 | > 100 | > 100 |  |  | 
8 | O=C(CC1C(=O)Nc2ccccc2S1=O)Nc1cc(Cl)ccc1Cl (configuration not stated) | > 100 | > 100 | > 100 | > 100 | > 100 | > 100 | > 100 |  |  |  |  |  |  |  |  |  |  |  |  | 
9 | CCN1CCN(c2cc(C)c3cc(NC(=O)c4ccc(OC)c(OC)c4)ccc3n2)CC1 | > 100 | 98.5 | > 100 | 85.5 | > 100 |  | 20.1 | 3.16 | 7.3 | > 100 | > 59 | 2.81 | 0.572 | > 100 | > 43.1 |  | 0.528 | 13.4 | > 39 | > 100
10 | C#CC1/C(=C\C(=O)OC)CCCC1O (configuration not stated) | > 100 | > 100 | > 100 | > 100 | > 100 | > 100 | > 100 |  |  |  |  |  |  |  |  |  |  |  |  | 
11 | CN1C(=O)c2ccccc2NC(=O)C12O[C@@H]2c1ccccc1 (some centres not stated) | > 100 | > 100 |  | > 100 | > 100 | > 100 | > 100 |  |  | > 100 |  |  |  | > 100 |  |  |  |  |  | > 100
12 | COc1ccc(-c2nnc3n(C)c(=O)c4ccccc4n23)cc1N | > 100 |  | > 100 | 99.5 | > 100 | > 100 | > 100 | 0.0571 | 2.65 | > 100 |  | 2.59 | 0.043 | > 100 | 2.75 | 5.87 | 0.0474 | 10.9 |  | 
13 | O=C(/C(=C/c1ccc(Cl)cc1)c1ccccc1)c1ccccc1 | 27.1 | 56.8 |  | 41.7 | > 100 | 72.4 |  |  |  |  |  |  |  |  |  |  |  |  |  | 
14 | COc1c(O)c2c(=O)cc3c4c5c(cc(=O)c6c(O)c(OC)c(CC(C)O)c(c(c1CC(C)O)c24)c65)OCO3 (configuration not stated) | 3.48 | 8.12 | 4.03 | 5.47 | 16.7 |  | 6.63 |  |  |  |  |  |  |  |  |  |  |  |  | 
15 | Cc1ccc(C)c(NC(=O)c2cccc([N+](=O)[O-])c2O)c1 | 81 |  | 37.8 | 41.3 | > 100 | > 100 | > 100 |  |  |  |  |  |  |  |  |  |  |  |  | 
16 | O=[N+]([O-])c1ccc2occ3c2c1CCC3 | > 100 | > 100 | > 100 | > 100 | > 100 | > 100 | > 100 |  |  |  |  |  |  |  |  |  |  |  |  | 
17 | N#CC(C(=O)/C(=N\NC(N)=O)C(C#N)c1ccc(Cl)cc1)c1ccc(Cl)cc1 (configuration not stated) | > 100 |  | > 100 | > 100 | > 100 | > 100 | > 100 |  |  |  |  |  |  |  |  |  |  |  |  | 
18 | O=C(Nc1cccc(Cl)c1)C(=O)C(C(=O)c1ccc2ccccc2c1)C1OC(=O)c2ccccc21 (configuration not stated) | 26.7 | 77.4 |  | 54.3 | 52.4 | > 100 | 56.6 |  |  |  |  |  |  |  |  |  |  |  |  | 
19 | N#C/C(=C\c1ccc2ccccc2c1)C(=O)c1ccccc1 | > 80.4 | > 100 | > 55.4 |  | 63.7 | > 100 | > 94.4 |  |  | > 100 |  |  |  | > 100 |  |  |  |  |  | > 100
20 | NC1CCN(Cc2ccccc2)CC1 | > 100 | > 100 | > 100 | > 100 | > 100 |  | > 100 | > 100 | > 100 | > 100 | > 100 | 8.22 | > 100 | > 100 | > 100 |  | > 100 | > 100 | > 100 | > 100
21 | Nc1ncn([C@@H]2O[C@H](CO)[C@@H](O)[C@H]2O)c(=O)n1 | 1.71 |  | 4.64 | 44.5 | > 100 | > 100 | 3.69 | 0.322 | 2.17 | > 100 |  | 0.346 | 1.24 | 18.2 | 1.95 | 8.49 | 1.56 | 3.06 |  | 
22 | COc1cnc2c(c1)C(=O)c1c-2n(CCCNC2=NCCS2)c(=O)c2cc([N+](=O)[O-])ccc12 |  |  |  |  |  | 2.82 | 1.81 |  |  |  |  |  |  |  |  | 1.01 | 0.137 |  |  | 
23 | Cc1ccccc1C(=O)c1cc(O)ccc1O | > 100 | > 100 | > 100 | > 100 | > 100 | > 100 | > 100 |  |  |  |  |  |  |  |  |  |  |  |  | 

— PubChem BioAssay (NCI)
